Assay results as given in patent US10765673B2, “Methods and compositions useful for treating diseases involving Bcl-2 family proteins with quinoline derivatives” (Eutropics Pharmaceuticals, Inc., priority 2012, dated 2020).

Columns and labels:
[1] = tested on: Mcl-1 1780 cell line; assay: DAPI fluorescence cell-based cytotoxicity (apoptosis) assay, Mcl-1 1780; set-up: species or system mouse; details: Mcl-1 1780, 24 hours, 125 nM to 1 μM
Protocol: (§1) The mouse leukemia-derived cell lines Mcl-1-1780 and Bcl-2-1863 (Ryan et al., Proc. Nat. Acad. Sci USA, 107, 12895-12900, which is hereby incorporated by reference in its entirety) were obtained under license from Dana Farber Cancer Institute. Cells were grown in RPMI 1640 medium (GIBCO-BRL) with 2 mM L-glutamine, 4.5 g/L glucose, 1.0 mM sodium pyruvate and 5% fetal bovine serum. Cells were expanded in tissue culture in appropriate media and then sub-cultured into 96-well plates at a seeding density of 20,000 cells per well. After incubation for 24 hours, cells were treated with compounds that are titrated into appropriate medium with FCS. Four concentrations of compound were used: 1 μM, 500 nM, 250 nM, and 125 nM. Assay was run in triplicate for each compound at each concentration and averages were calculated. Cells were treated with compound for 24 hours, then fixed with methanol and stained with the DNA-binding agent DAPI (4′,6-diamidino-2-phenylindole). The cells were then examined by fluorescent microscopy; cells in which caspase 3 and caspase 7 have not been activated will emit at […] when excited by […] light. Caspase-mediated cleavage of nucleosomal proteins causes condensed, pyenotic nuclear morphology that may be measured by cell counting.

[2] = tested on: Bcl-2 1863 cell line; assay: DAPI fluorescence cell-based cytotoxicity (apoptosis) assay, Bcl-2 1863; set-up: species or system mouse; details: Bcl-2 1863, 24 hours, 125 nM to 1 μM
Protocol: as §1

[3] = tested on: DHL-6; assay: In situ mitochondrial cytochrome c release assay, DHL-6; assay type: cell-based; details: DHL-6 (Bax/Bak-functional), semi-permeabilized cells, 1 hour
From the text: (§2) The on-target activity of compound 12 was validated. Changes in mitochondrial integrity were observed utilizing anti-cytochrome c conjugated to Alexa488 (BD). When the mitochondria are intact, they retain cytochrome c and have bright, punctate staining with the antibody whereas cells with compromised mitochondrial integrity will lose cytochrome c and will not stain with the antibody. This can be observed by microscopy as well as measured by a shift in fluorescence on the FL1 channel of a flow cytometer.
(§3) The selective response of mitochondria in semi-permeabilized cell lines to the compounds was observed. The assay was adapted from (Campos et al. (2006) Cytometry Part A. 69(A):515-523, which is hereby incorporated by reference in its entirety).
(§4) Suspension cell lines SUDHL6, SUDHL8, and SUDHL10 were grown in RPMI, washed once in 1×PBS and re-suspended at a concentration of 2e6/ml in assay buffer with 0.0025% Digitonin. Assay buffer; 300 mM Trehalose, 10 mM HEPES-KOH pH 7.7, 80 mM KCl, 1 mM EGTA, 1 mM EDTA, 0.1% BSA. 5 mM Succinate. […] Cytochrome c loss was measured by microscopy. At least 100 cells per treatment were counted and scored as positive for cytochrome c loss if they lacked staining. In both methods DMSO was calculated as 0% cytochrome c loss and the Bim response for DHL6 was used to determine 100% cytochrome c loss.

[4] = tested on: DHL-8; assay: In situ mitochondrial cytochrome c release assay, DHL-8; assay type: cell-based; details: DHL-8, semi-permeabilized cells, 1 hour
From the text: as §2, §3, §4

[5] = tested on: DHL-10; assay: In situ mitochondrial cytochrome c release assay, DHL-10; assay type: cell-based; details: DHL-10 (Bax/Bak-deficient), semi-permeabilized cells, 1 hour
From the text: as §2, §3, §4

CCN1CCN(C(c2ccc(C(F)(F)F)cc2)c2ccc3cccnc3c2O)CC1 (centres unmarked) [compound 12, 7-((4-ethylpiperazin-1-yl)(4-(trifluoromethyl)phenyl)methyl)quinolin-8-ol]
induction of apoptosis (cells exhibiting apoptosis) [1]: induce apoptosis
induction of apoptosis (cells exhibiting apoptosis) [2]: significantly lesser degree
cytochrome c release [3]: activity
cytochrome c release [4]: reduced activity
cytochrome c release [5]: lack of activity
